The results in this text go back to patent US20260159520A1, “HETEROBIFUNCTIONAL COMPOUNDS AND METHODS OF TREATING DISEASE” (Halda Therapeutics OpCo, Inc., priority 2022, published 2026).

For orientation: Kd means the equilibrium constant for the complex coming apart. High values mean weaker binding, low ones tighter binding. As usually defined, the GI50 is the concentration at which growth is held to half of that of the control.

One assay concerns the target T1, androgen receptor (Homo sapiens, UniProt P10275).
T1 construct: endogenous in cells; host or cells: unnamed cells (cytosol fraction)
T1 sequence (P10275 1-920): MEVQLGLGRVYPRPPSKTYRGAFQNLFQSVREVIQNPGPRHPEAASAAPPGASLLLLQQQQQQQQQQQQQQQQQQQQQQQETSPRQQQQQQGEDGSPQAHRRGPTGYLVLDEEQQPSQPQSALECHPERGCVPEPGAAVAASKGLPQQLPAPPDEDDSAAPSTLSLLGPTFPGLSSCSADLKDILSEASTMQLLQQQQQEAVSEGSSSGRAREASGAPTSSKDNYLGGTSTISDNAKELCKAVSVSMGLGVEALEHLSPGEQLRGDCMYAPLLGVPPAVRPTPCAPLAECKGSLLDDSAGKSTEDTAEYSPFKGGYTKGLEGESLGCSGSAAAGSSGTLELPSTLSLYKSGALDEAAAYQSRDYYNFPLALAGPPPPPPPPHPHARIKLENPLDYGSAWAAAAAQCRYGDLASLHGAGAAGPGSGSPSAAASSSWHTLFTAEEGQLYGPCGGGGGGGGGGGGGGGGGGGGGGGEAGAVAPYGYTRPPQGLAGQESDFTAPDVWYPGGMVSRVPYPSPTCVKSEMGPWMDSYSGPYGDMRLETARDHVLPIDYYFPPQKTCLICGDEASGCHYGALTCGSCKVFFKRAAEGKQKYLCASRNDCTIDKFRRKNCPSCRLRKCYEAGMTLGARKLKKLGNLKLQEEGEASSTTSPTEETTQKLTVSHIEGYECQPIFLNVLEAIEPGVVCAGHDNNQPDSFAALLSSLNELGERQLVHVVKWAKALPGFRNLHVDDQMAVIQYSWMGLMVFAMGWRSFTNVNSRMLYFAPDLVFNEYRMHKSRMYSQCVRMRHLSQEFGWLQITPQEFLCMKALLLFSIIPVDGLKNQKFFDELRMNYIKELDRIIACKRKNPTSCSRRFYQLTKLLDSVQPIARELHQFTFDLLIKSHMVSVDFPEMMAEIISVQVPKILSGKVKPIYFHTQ
Put plainly: Binding affinity to androgen receptor ([3H]methyltrienolone radioligand, cell cytosol). The settings on record: Table 6. The method in brief:
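Cell cytosol incubated 24 h at 4 °C with 1 nM [3H]methyltrienolone in Hepes-Tris pH 7.4 buffer containing molybdate, DTT, 5 μM triamcinolone acetonide and glycerol; nonspecific binding with 1 μM testosterone. Filtration and scintillation counting; reported as % inhibition of specific binding.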

The subject of assay [1] is T-Rex 293 cell line SC cells having increased expression of progesterone receptor isoform B protein. The experiment in a line: Cellular growth inhibition, T-Rex 293 SC cells with doxycycline (increased progesterone receptor isoform B expression). It counts as cell-based. Particulars: with 10 ng/mL doxycycline (increased progesterone receptor isoform B), 72 hours, CellTiter-Glo 2.0. (In ATP-based viability assays light output follows the ATP content of the culture.)

The subject of assay [2] is T-Rex 293 cell line SC cells lacking increased expression of progesterone receptor isoform B protein. The experiment in a line: Cellular growth inhibition, T-Rex 293 SC cells without doxycycline. The assay is classed as cell-based. The settings on record: not exposed to doxycycline, 72 hours, CellTiter-Glo 2.0.

On to `CCc1cnn2c(NCc3ccc(OCCCN4CCN(CC5CCN(c6ccc(C(=O)N[C@H]7C(C)(C)[C@H](Oc8ccc(C#N)c(Cl)c8)C7(C)C)cn6)CC5)CC4)nc3)cc(N3CCCC[C@@H]3CCO)nc12` [Compound I-55, N-((1r,3r)-3-(3-chloro-4-cyanophenoxy)-2,2,4,4-tetramethylcyclobutyl)-6-(4-((4-(3-((5-(((3-ethyl-5-((R)-2-(2-hydroxyethyl)piperidin-1-yl)pyrazolo[1,5-a]pyrimidin-7-yl)amino)methyl)pyridin-2-yl)oxy)propyl)piperazin-1-yl)methyl)piperidin-1-yl)nicotinamide], for which, on androgen receptor, the Kd was under 0.05 µM. The GI50 in assay [1] and in assay [2] was under 0.5 µM in each case.

On androgen receptor, `CCc1cnn2c(NCc3ccc(OCCCN4CCN(CC5CCN(c6ccc(C(=O)N[C@H]7C(C)(C)[C@H](Oc8ccc(C#N)c(Cl)c8)C7(C)C)cc6)CC5)CC4)nc3)cc(N3CCCC[C@@H]3CCO)nc12` [II-1, N-((1r,3r)-3-(3-chloro-4-cyanophenoxy)-2,2,4,4-tetramethylcyclobutyl)-4-(4-((4-(3-((5-(((3-ethyl-5-((R)-2-(2-hydroxyethyl)piperidin-1-yl)pyrazolo[1,5-a]pyrimidin-7-yl)amino)methyl)pyridin-2-yl)oxy)propyl)piperazin-1-yl)methyl)piperidin-1-yl)benzamide] gave a dissociation constant Kd of under 0.05 µM. For the same molecule, the GI50 in assay [1] and in assay [2] was under 0.5 µM each time.
